Assay results reported in ChEMBL document CHEMBL4049409, “Structure-based discovery of LpxC inhibitors” (Bioorg Med Chem Lett, 2017).
Values after ≈ are worked out from the molar mass of the structure shown.

What was measured:
[1] = target: Sigma intracellular receptor 2 (Homo sapiens) (UniProt Q5BJF2); experiment: Antagonist activity at sigma2 receptor (unknown origin) at 25 uM relative to control
Pseudomonas aeruginosa [2] = experiment: Antibacterial activity against Pseudomonas aeruginosa assessed as reduction in bacterial burden in in-vivo blood infection septicemia model; format: functional; details: read-out: PD50
[3] = target: T1, UDP-3-O-acyl-N-acetylglucosamine deacetylase (Pseudomonas aeruginosa (strain ATCC 15692 / PAO1 / 1C / PRS 101 / LMG12228), UniProt P47205); experiment: Inhibition of LpxC in Pseudomonas aeruginosa isolate 44 ATCC 27853
T1 sequence (P47205 whole entry): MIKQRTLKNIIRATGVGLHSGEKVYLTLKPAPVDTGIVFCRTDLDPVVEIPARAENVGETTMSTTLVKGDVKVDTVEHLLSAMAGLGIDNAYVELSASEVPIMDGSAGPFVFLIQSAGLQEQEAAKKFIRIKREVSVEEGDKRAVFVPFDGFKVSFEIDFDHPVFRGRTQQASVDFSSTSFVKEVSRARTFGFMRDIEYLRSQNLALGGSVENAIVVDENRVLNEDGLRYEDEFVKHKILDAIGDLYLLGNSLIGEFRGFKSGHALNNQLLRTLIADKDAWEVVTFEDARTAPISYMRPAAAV

[4] = Volume of distribution at steady state in cynomolgus monkey at 10 mg/kg, iv; format: ADME, organism-based, Macaca fascicularis; details: in vivo, read-out: Vdss
Escherichia coli [5] = experiment: Antibacterial activity against Escherichia coli isolate 35 ATCC 25922; format: functional
Rattus norvegicus [6] = experiment: Acute toxicity in rat at 200 mg/kg using capsitol capsulated formulation; format: organism-based; details: in vivo
[7] = Half life in mouse at 10 mg/kg, sc; format: ADME, organism-based; details: in vivo
Pseudomonas aeruginosa [8] = experiment: Antibacterial activity against Pseudomonas aeruginosa assessed as 3-log reduction in bacterial burden in in-vivo thigh infection model; format: functional
[9] = target: T2, Muscarinic acetylcholine receptor M2 (Homo sapiens) (UniProt P08172); experiment: Antagonist activity at muscarinic M2 receptor (unknown origin) at 25 uM relative to control
T2 sequence (whole entry): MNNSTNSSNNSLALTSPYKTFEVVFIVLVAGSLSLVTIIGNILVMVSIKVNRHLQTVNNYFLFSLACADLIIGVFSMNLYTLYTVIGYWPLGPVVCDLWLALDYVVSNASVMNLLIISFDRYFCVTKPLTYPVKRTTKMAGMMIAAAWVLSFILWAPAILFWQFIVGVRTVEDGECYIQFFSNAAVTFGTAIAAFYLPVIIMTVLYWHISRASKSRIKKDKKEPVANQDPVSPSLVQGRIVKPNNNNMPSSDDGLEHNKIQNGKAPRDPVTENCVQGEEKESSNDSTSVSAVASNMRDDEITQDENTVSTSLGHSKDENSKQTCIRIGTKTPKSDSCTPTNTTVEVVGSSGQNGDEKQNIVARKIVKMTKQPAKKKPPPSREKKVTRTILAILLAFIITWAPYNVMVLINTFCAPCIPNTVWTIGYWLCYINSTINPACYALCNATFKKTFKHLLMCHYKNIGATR

[10] = Half life in cynomolgus monkey at 10 mg/kg, iv; format: ADME, organism-based, Macaca fascicularis; details: in vivo
Klebsiella pneumoniae [11] = experiment: Antibacterial activity against Klebsiella pneumoniae assessed as 3 log reduction in lung bacterial burden in in-vivo lung infection model; format: functional
[12] = Clearance in cynomolgus monkey at 10 mg/kg, iv; format: ADME, organism-based, Macaca fascicularis; details: in vivo
Pseudomonas aeruginosa [13] = experiment: Antibacterial activity against Pseudomonas aeruginosa isolate 847; format: functional
[14] = Volume of distribution at steady state in rat at 10 mg/kg, iv; format: ADME, organism-based; details: in vivo, read-out: Vdss
[15] = Volume of distribution at steady state in mouse at 2 mg/kg, iv; format: ADME, organism-based; details: in vivo, read-out: Vdss
Escherichia coli [16] = experiment: Antibacterial activity against Escherichia coli assessed as 2 log reduction in bladder bacterial burden in in-vivo urinary tract infection model; format: functional
[17] = Bioavailability in mouse at 10 mg/kg, sc; format: ADME, organism-based; details: in vivo
[18] = Clearance in rat at 10 mg/kg, iv; format: ADME, organism-based; details: in vivo
Rattus norvegicus [19] = experiment: Toxicity in rat at 100 mg/kg, iv administered as bolus dose using 10% capsitol formulation for 7 days; format: organism-based; details: in vivo, 168 h
Pseudomonas aeruginosa [20] = experiment: Antibacterial activity against Pseudomonas aeruginosa isolate 839 harboring mexAB-oprM deletion mutant; format: functional
Mus musculus [21] = experiment: Dose normalized AUC in mouse at 10 mg/kg, sc; format: ADME, organism-based; details: in vivo
[22] = Clearance in mouse at 10 mg/kg, sc; format: ADME, organism-based; details: in vivo
[23] = Fraction unbound in mouse plasma at 10 uM by equilibrium dialysis method; format: ADME, cell-free
[24] = Half life in rat at 10 mg/kg, iv; format: ADME, organism-based; details: in vivo
Klebsiella pneumoniae [25] = experiment: Antibacterial activity against Klebsiella pneumoniae isolate 21 ATCC 4352; format: functional
[26] = Fraction unbound in human plasma at 10 uM by equilibrium dialysis method; format: ADME, cell-free
Pseudomonas aeruginosa [27] = experiment: Antibacterial activity against Pseudomonas aeruginosa isolate 44 ATCC 27853; format: functional
[28] = target: T1, UDP-3-O-acyl-N-acetylglucosamine deacetylase; experiment: Inhibition of LpxC in Pseudomonas aeruginosa isolate 847
[29] = Fraction unbound in cynomolgus monkey plasma at 10 uM by equilibrium dialysis method; format: ADME, cell-free, Macaca fascicularis
Mus musculus [30] = experiment: Dose normalized AUC in mouse at 2 mg/kg, iv; format: ADME, organism-based; details: in vivo
Pseudomonas aeruginosa [31] = experiment: Antibacterial activity against Pseudomonas aeruginosa assessed as 3-log reduction in bacterial burden in in-vivo lung infection model; format: functional
Rattus norvegicus [32] = experiment: Acute toxicity in rat at 75 mg/kg using Tween-80 formulation; format: organism-based; details: in vivo
Rattus norvegicus [33] = species: Rattus norvegicus; experiment: Displacement of sodium channel site 2 in [3H]Batrachotoxinin from Wistar rat brain membranes at 25 uM after 60 mins relative to control; details: Membrane
[34] = target: T3, UDP-3-O-acyl-N-acetylglucosamine deacetylase (Escherichia coli K-12, UniProt P0A725); experiment: Inhibition of LpxC in Escherichia coli isolate 35 ATCC 25922; parameters: species or system Escherichia coli ATCC 25922
T3 sequence (P0A725 whole entry): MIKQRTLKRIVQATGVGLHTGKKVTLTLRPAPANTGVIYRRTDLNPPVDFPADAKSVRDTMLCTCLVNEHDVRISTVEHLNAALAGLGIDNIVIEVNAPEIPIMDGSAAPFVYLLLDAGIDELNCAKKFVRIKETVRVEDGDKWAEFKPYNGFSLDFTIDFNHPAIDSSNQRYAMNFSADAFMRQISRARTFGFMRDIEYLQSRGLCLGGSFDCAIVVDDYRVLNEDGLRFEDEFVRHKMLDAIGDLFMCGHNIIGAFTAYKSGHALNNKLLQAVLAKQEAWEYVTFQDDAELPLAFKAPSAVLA

[35] = Aqueous solubility of the compound in pH 7.4 buffer; format: physicochemical
[36] = Clearance in mouse at 2 mg/kg, iv; format: ADME, organism-based; details: in vivo
Cynomolgus monkey = experiment: Dose normalized AUC in cynomolgus monkey at 10 mg/kg, iv; format: ADME, organism-based, Macaca fascicularis; details: in vivo
[37] = Fraction unbound in rat plasma at 10 uM by equilibrium dialysis method; format: ADME, cell-free
[38] = Displacement of sodium channel site 2 in [3H]Batrachotoxinin from Wistar rat brain membranes after 60 mins; parameters: species or system Membrane
[39] = Half life in mouse at 2 mg/kg, iv; format: ADME, organism-based; details: in vivo
Rattus norvegicus [40] = experiment: Dose normalized AUC in rat at 10 mg/kg, iv; format: ADME, organism-based; details: in vivo
[41] = Inhibition of LpxC in Acinetobacter baumannii focus ID 961025
[42] = Inhibition of LpxC in Klebsiella pneumoniae isolate 21 ATCC 4352
Acinetobacter baumannii = experiment: Antibacterial activity against Acinetobacter baumannii focus ID 961025; format: functional

Sigma intracellular receptor 2 (Homo sapiens), sequence (Q5BJF2 whole entry): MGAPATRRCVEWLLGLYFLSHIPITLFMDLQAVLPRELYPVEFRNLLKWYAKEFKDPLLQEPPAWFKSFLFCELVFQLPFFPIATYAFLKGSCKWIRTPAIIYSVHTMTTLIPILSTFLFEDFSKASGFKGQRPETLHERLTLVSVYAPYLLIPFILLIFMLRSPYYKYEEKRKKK

Work on `CC(C)(N)[C@H](N[C@H]1CCc2cc(C#Cc3ccc(Cn4ccnc4CO)cc3)ccc21)C(=O)NO` yielded an inhibition [1] of over 50%, an ED50 (Pseudomonas aeruginosa [2]) of 13 mg/kg and an IC50 [3] of 4 nM. For the same compound, the Vd [4] was 0.38 L/kg, the MIC (Escherichia coli [5]) was 0.5 to 1 µg/mL (≈ 1.06 to 2.11 µM) and the MIC90 (Escherichia coli [5]) was 1 µg/mL (≈ 2.11 µM). For the same compound, the Activity (Rattus norvegicus [6]) was “Non-Toxic”, the half-life [7] was 1.2 h and the ED (Pseudomonas aeruginosa [8]) was 25 mg/kg. It also gave an inhibition [9] of over 50%, a half-life [10] of 6.54 h and an ED (Klebsiella pneumoniae [11]) of 2.7 mg/kg. The clearance [12] was 4.39 mL/min/kg, the MIC (Pseudomonas aeruginosa [13]) was 4 µg/mL (≈ 8.45 µM) and the Vd [14] was 0.68 L/kg. The Vd [15] was 0.4 L/kg, the ED (Escherichia coli [16]) was 15.1 mg/kg and the bioavailability [17] was 74%. For the same compound, the clearance [18] was 15.6 mL/min/kg, the Activity (Rattus norvegicus [19]) was “Non-Toxic” and the MIC (Pseudomonas aeruginosa [20]) was 0.125 µg/mL (≈ 0.264 µM). For the same compound, the AUC/dose (Mus musculus [21]) was 0.7 µg·h/mL/mg/kg, the CL/F [22] was 24.4 mL/min/kg and the fraction unbound at 10 µM [23] was 0.067. The half-life [24] was 1.87 h, the MIC (Klebsiella pneumoniae [25]) was 0.125 µg/mL (≈ 0.264 µM) and the MIC90 (Klebsiella pneumoniae [25]) was 8 µg/mL (≈ 16.9 µM). It also gave a fraction unbound at 10 µM [26] of 0.06, an MIC (Pseudomonas aeruginosa [27]) of 1 µg/mL (≈ 2.11 µM) and an MIC90 (Pseudomonas aeruginosa [27]) of 4 µg/mL (≈ 8.45 µM). It also gave an IC50 [28] of 2 nM, a fraction unbound at 10 µM [29] of 0.047 and an AUC/dose (Mus musculus [30]) of 0.95 µg·h/mL/mg/kg. For the same compound, the ED (Pseudomonas aeruginosa [31]) was 32 mg/kg, the Activity (Rattus norvegicus [32]) was “Toxic” and the inhibition (Rattus norvegicus [33]) was 97%. It also gave an IC50 [34] of 4 nM, a solubility [35] of 850 µg/mL (≈ 1790 µM) and a clearance [36] of 17.5 mL/min/kg. The AUC/dose (Cynomolgus monkey) was 4.07 µg·h/mL/mg/kg, the fraction unbound at 10 µM [37] was 0.05 and the IC50 [38] was 400 nM. The half-life [39] was 1.7 h and the AUC/dose (Rattus norvegicus [40]) was 1.07 µg·h/mL/mg/kg.

For `C[C@@H](O)[C@H](N[C@H]1CCc2cc(C#Cc3ccc(CN4CCOCC4)cc3)ccc21)C(=O)NO`, the IC50 [3] was 3 nM, the MIC (Escherichia coli [5]) was under 0.125 µg/mL and the IC50 [41] was 70 nM. For the same compound, the MIC (Pseudomonas aeruginosa [13]) was 2 µg/mL (≈ 4.45 µM), the IC50 [42] was 2 nM and the MIC (Pseudomonas aeruginosa [20]) was 0.25 µg/mL (≈ 0.556 µM). For the same compound, the MIC (Klebsiella pneumoniae [25]) was under 0.125 µg/mL, the MIC (Pseudomonas aeruginosa [27]) was 8 µg/mL (≈ 17.8 µM) and the IC50 [28] was 2 nM. For the same compound, the MIC (Acinetobacter baumannii) was 32 µg/mL (≈ 71.2 µM) and the IC50 [34] was 2 nM.
